# Measurements from BindingDB's records for doi:10.1021/jm981078h (Leiden University, 1999).
# Target: Asialoglycoprotein receptor 1 (Rattus norvegicus) (UniProt P02706)
# Experiment: Affinity tested by in vitro competition assay of [125I]ASOR binding to parenchymal rat liver cells
# Sequence of Asialoglycoprotein receptor 1 (Rattus norvegicus) (P02706 whole entry, looked up): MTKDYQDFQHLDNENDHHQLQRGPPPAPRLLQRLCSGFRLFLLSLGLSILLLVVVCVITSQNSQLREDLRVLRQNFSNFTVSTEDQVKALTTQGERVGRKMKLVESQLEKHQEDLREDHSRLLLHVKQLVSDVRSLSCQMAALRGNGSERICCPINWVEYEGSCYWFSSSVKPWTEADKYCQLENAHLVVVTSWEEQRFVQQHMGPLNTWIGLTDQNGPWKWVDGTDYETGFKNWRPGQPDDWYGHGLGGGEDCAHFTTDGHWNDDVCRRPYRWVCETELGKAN
row,Ki [nM],SMILES
1,93,O=C(CCCCO[C@@H]1O[C@@H](CO)[C@H](O)[C@H](O)[C@@H]1O)NCC(=O)NCCCC(=O)OCC(COC(=O)CCCNC(=O)CNC(=O)CCCCO[C@@H]1O[C@@H](CO)[C@H](O)[C@H](O)[C@@H]1O)(COC(=O)CCCNC(=O)CNC(=O)CCCCO[C@@H]1O[C@@H](CO)[C@H](O)[C@H](O)[C@@H]1O)NC(=O)CNC(=O)OCc1ccccc1 [Galactoside analogue]
2,93,O=C(CCCCO[C@@H]1O[C@@H](CO)[C@H](O)[C@H](O)[C@@H]1O)NCCCNC(=O)CCOCC(COCCC(=O)NCCCNC(=O)CCCCO[C@@H]1O[C@@H](CO)[C@H](O)[C@H](O)[C@@H]1O)(COCCC(=O)NCCCNC(=O)CCCCO[C@@H]1O[C@@H](CO)[C@H](O)[C@H](O)[C@@H]1O)NC(=O)CNC(=O)OCc1ccccc1 [Galactoside analogue]

row,SMILES,Ki [nM]
1,CC(C)CCCC(C)[C@H]1CC[C@H]2[C@@H]3CC=C4C[C@@H](OC(=O)CNC(=O)CCCCC(=O)NCC(=O)NC(COCOCCOCCOCCOCCO[C@@H]5O[C@@H](CO)[C@H](O)[C@H](O)[C@@H]5O)(COCOCCOCCOCCOCCO[C@@H]5O[C@@H](CO)[C@H](O)[C@H](O)[C@@H]5O)COCOCCOCCOCCOCCO[C@@H]5O[C@@H](CO)[C@H](O)[C@H](O)[C@@H]5O)CC[C@]4(C)[C@H]3CC[C@]12C (stereo partly drawn) [TG(20)C-Galactoside analogue],200
